From patent US20180147196A1, “PYRIDIN-3-YL ACETIC ACID DERIVATIVES AS INHIBITORS OF HUMAN IMMUNODEFICIENCY VIRUS REPLICATION” (priority 2015, published 2018)
pEC50: −log10 of the molar value.

Tested on: NL-RLuc virus
Assay: Inhibition of HIV replication (NL-RLuc virus in MT-2 cells, luciferase readout)
Assay type: cell-based
Conditions: Human immunodeficiency virus 1, MT2, 120 h, read-out: Activity
Description: Inhibition of HIV replication: A recombinant NL-RLuc proviral clone was constructed in which a section of the nef gene from NL4-3 was replaced with the Renilla Luciferase gene. This virus is fully infectious and can undergo multiple cycles of replication in cell culture. In addition, the luciferous reporter provides a simple and easy method for quantitating the extent of virus growth and consequently, the antiviral activity of test compounds. The plasmid pNLRLuc contains the proviral NL-Rluc DNA cloned into pUC18 at the Pvull site. The NL-RLuc virus was prepared by transfection of 293T cells with the plasmid pNLRLuc. Transfections were performed using the LipofectAMINE PLUS kit from Invitrogen (Carlsbad, Calif.) according to the manufacturer and the virus generated was titered in MT-2 cells. For susceptibility analyses, the titrated virus was used to infect MT-2 cells in the presence of compound, and after 5 days of incubation, cells were processed and quantitated for virus growth by the amount of expressed luciferase. Assay media was RPMI 1640 supplemented with 10% heat inactivated fetal bovine serum (FBS), 100 units/ml penicillin G/100 units/ml streptomycin, 10 mM HEPES buffer pH 7.55 and 2 mM L-glutamine. The results from at least 2 experiments were used to calculate the EC50 values. Luciferase was quantitated using the Dual Luciferase kit from Promega (Madison, Wis.). Susceptibility of viruses to compounds was determined by incubation in the presence of serial dilutions of the compound. The 50% effective concentration (EC50) was calculated by using the exponential form of the median effect equation where (Fa)=1/[1+(ED50/drug conc.)^m] (Johnson V A, Byington R T. Infectivity Assay. In Techniques in HIV Research. ed. Aldovini A, Walker BD. 71-76. New York: Stockton Press.1990). Activity equal to A refers to a compound having an EC50<100 nM, while B and C denote compounds having an EC50 between 100 nM and 1 uM (B) or >1 uM (C).

| SMILES | pEC50 |
| --- | --- |
| COC(=O)N1CC=C(c2c(C)nc(C)c([C@H](OC(C)(C)C)C(=O)O)c2N2CCC(C)(C)CC2)CC1 [Example 20, (S)-2-(tert-Butoxy)-2-(4-(4,4-dimethylpiperidin-1-yl)-1′-(methoxycarbonyl)-2,6-dimethyl-1′,2′,3′,6′-tetrahydro-[3,4′-bipyridin]-5-yl)acetic acid] | 6.00 to 7.00 |
| Cc1nc(C)c([C@H](OC(C)(C)C)C(=O)O)c(N2CCC(C)(C)CC2)c1C1=CCN(CCc2ccc(F)cc2)CC1 [Example 22, (S)-2-(tert-Butoxy)-2-(4-(4,4-dimethylpiperidin-1-yl)-1′-(4-fluorophenethyl)-2,6-dimethyl-1′,2′,3′,6′-tetrahydro-[3,4′-bipyridin]-5-yl)acetic acid] | 6.00 to 7.00 |
| Cc1nc(C)c([C@H](OC(C)(C)C)C(=O)O)c(N2CCC(C)(C)CC2)c1C1=CCN(C(=O)OC(C)(C)C)CC1 [Example 16, (S)-2-(tert-Butoxy)-2-(1′-(tert-butoxycarbonyl)-4-(4,4-dimethylpiperidin-1-yl)-2,6-dimethyl-1′,2′,3′,6′-tetrahydro-[3,4′-bipyridin]-5-yl)acetic acid] | > 7.00 |
| Cc1nc(C)c([C@H](OC(C)(C)C)C(=O)O)c(N2CCC(C)(C)CC2)c1C1=CCN(C(=O)OCc2ccccc2)CC1 [Example 19, (S)-2-(1′-((Benzyloxy)carbonyl)-4-(4,4-dimethylpiperidin-1-yl)-2,6-dimethyl-1′,2′,3′,6′-tetrahydro-[3,4′-bipyridin]-5-yl)-2-(tert-butoxy)acetic acid] | > 7.00 |
| Cc1nc(C)c([C@H](OC(C)(C)C)C(=O)O)c(N2CCC(C)(C)CC2)c1C1=CCN(CCCc2ccc(F)cc2)CC1 [Example 23, (S)-2-(tert-Butoxy)-2-(4-(4,4-dimethylpiperidin-1-yl)-1′-(3-(4-fluorophenyl)propyl)-2,6-dimethyl-1′,2′,3′,6′-tetrahydro-[3,4′-bipyridin]-5-yl)acetic acid] | > 7.00 |
